Assay results reported in patent US20250002507A1, “7,8-DIHYDRO-5H-1,6-NAPHTHYRIDINE DERIVATIVES AS POSITIVE ALLOSTERIC MODULATORS OF THE MUSCARINIC ACETYLCHOLINE RECEPTOR M4 FOR TREATING NEUROLOGICAL AND PSYCHIATRIC DISORDERS” (Vanderbilt University, priority 2021, published 2025).

Molecular target: T1, Human M4 (Homo sapiens, UniProt P08173)
T1 construct: expressed in transfected cells
T1 sequence (P08173 1-479): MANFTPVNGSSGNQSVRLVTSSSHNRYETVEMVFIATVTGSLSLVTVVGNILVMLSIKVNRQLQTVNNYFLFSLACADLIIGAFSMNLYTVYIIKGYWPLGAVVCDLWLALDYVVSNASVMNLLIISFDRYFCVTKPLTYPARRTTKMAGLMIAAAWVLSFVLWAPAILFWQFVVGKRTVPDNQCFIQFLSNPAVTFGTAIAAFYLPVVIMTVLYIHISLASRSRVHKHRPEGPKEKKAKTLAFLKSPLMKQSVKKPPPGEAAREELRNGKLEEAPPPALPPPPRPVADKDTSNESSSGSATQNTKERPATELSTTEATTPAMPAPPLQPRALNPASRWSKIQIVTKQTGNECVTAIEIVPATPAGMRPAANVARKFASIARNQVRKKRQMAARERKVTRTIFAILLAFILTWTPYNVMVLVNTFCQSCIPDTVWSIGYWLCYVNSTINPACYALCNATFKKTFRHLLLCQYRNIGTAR
Test: mAChR M4 cell-based functional assay (calcium flux, potentiation of EC20 acetylcholine response), hM4-Gqi5 CHO-K1 cells
Settings: Table 4; for Emax at 30 µM: CHO-K1, Human M4, % ACh maximum at 30 μM, read-out: Emax (% ACh maximum at 30 μM); for EC50: potentiation of EC20 acetylcholine response, calcium flux, CHO-K1 cells, read-out: Human M4 EC50
Outline: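 CHO-K1 cells stably expressing human M4 with chimeric Gqi5, loaded with Fluo-4 AM 50 min at 37 °C; calcium flux read by FDSS. 11-point 1:3 compound curves added, then EC20 acetylcholine at 144 s; potentiation of the EC20 response fitted by four-parameter logistic to give EC50 and Emax.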

| Emax at 30 µM [%] | EC50 [µM] | Structure (SMILES) |
| --- | --- | --- |
| 99 | 0.022 | [2H]C1([2H])Cc2ncc(Nc3cc(C)ncc3F)cc2C([2H])([2H])N1c1nn2cnnc2c(C)c1C [Compound 353, 6-(7,8-dimethyl-[1,2,4]triazolo[4,3-b]pyridazin-6-yl)-N-(5-fluoro-2-methylpyridin-4-yl)-5,6,7,8-tetrahydro-1,6-naphthyridin-5,5,7,7-d4-3-amine] |
| 87 | 0.355 | [2H]C1([2H])Cc2ncc(Nc3cccnc3C)cc2C([2H])([2H])N1c1nn2cnnc2cc1C [Compound 354, 6-(7-methyl-[1,2,4]triazolo[4,3-b]pyridazin-6-yl)-N-(2-methylpyridin-3-yl)-5,6,7,8-tetrahydro-1,6-naphthyridin-5,5,7,7-d4-3-amine] |
| 94 | 0.014 | [2H]C1([2H])Cc2ncc(Nc3ccncc3F)cc2C([2H])([2H])N1c1nn2cnnc2cc1C [Compound 355, N-(3-Fluoropyridin-4-yl)-6-(7-methyl-1,2,4[triazolo 4,3-b]pyridazin-6-yl)-5,6,7,8-tetrahydro-1,6-naphthyridin-5,5,7,7-d4-3-amine] |
| 77 | 0.686 | [2H]C1([2H])Cc2ncc(Nc3ccncc3C)cc2C([2H])([2H])N1c1nn2cnnc2cc1C [Compound 356, 6-(7-methyl-[1,2,4]triazolo[4,3-b]pyridazin-6-yl)-N-(3-methylpyridin-4-yl)-5,6,7,8-tetrahydro-1,6-naphthyridin-5,5,7,7-d4-3-amine] |

The remaining lines, values behind:

| Structure (SMILES) | Emax at 30 µM [%] | EC50 [µM] |
| --- | --- | --- |
| Cc1c(C2CC2)c(N2CCc3ncc(C(F)(F)F)cc3C2)nn2cnnc12 [Compound 346, 6-(7-Cyclopropyl-8-methyl-[1,2,4]triazolo[4,3-b]pyridazin-6-yl)-3-(trifluoromethyl)-5,6,7,8-tetrahydro-1,6-naphthyridine] | 70 | 2.11 |
| Cc1ccc(-c2cnc3c(c2)CN(c2nn4cnnc4c(C)c2C2CC2)CC3)cn1 [Compound 347, 6-(7-cyclopropyl-8-methyl-[1,2,4]triazolo[4,3-b]pyridazin-6-yl)-3-(6-methylpyridin-3-yl)-5,6,7,8-tetrahydro-1,6-naphthyridine] | 61 | 0.788 |
| Cc1c(C2CC2)c(N2CCc3ncc(N4CCO[C@H](C)C4)cc3C2)nn2cnnc12 [Compound 348, (R)-4-(6-(7-cyclopropyl-8-methyl-[1,2,4]triazolo[4,3-b]pyridazin-6-yl)-5,6,7,8-tetrahydro-1,6-naphthyridin-3-yl)-2-methylmorpholine] | 66 | 1.85 |
| COCc1c(N2CCc3ncc(C(F)(F)F)cc3C2)nn2cnnc2c1C [Compound 349, 6-(7-(Methoxymethyl)-8-methyl-[1,2,4]triazolo[4,3-b]pyridazin-6-yl)-3-(trifluoromethyl)-5,6,7,8-tetrahydro-1,6-naphthyridine] | 106 | 0.093 |
| COCc1c(C)c(N2CCc3ncc(C(F)(F)F)cc3C2)nn2cnnc12 [Compound 350, 6-(8-(Methoxymethyl)-7-methyl-[1,2,4]triazolo[4,3-b]pyridazin-6-yl)-3-(trifluoromethyl)-5,6,7,8-tetrahydro-1,6-naphthyridine] | 77 | 5.11 |
| Cc1c(N2CCc3ncc(C(F)(F)F)cc3C2)nn2cnnc2c1C(F)(F)F [Compound 351, 6-(7-Methyl-8-(trifluoromethyl)-[1,2,4]triazolo[4,3-b]pyridazin-6-yl)-3-(trifluoromethyl)-5,6,7,8-tetrahydro-1,6-naphthyridine] | 77 | 1.4 |
| [2H]C1([2H])Cc2ncc(Nc3cc(C)ncc3F)cc2C([2H])([2H])N1c1nn2cnnc2cc1C [Compound 352, N-(5-fluoro-2-methylpyridin-4-yl)-6-(7-methyl-[1,2,4]triazolo[4,3-b]pyridazin-6-yl)-5,6,7,8-tetrahydro-1,6-naphthyridin-5,5,7,7-d4-3-amine] | 98 | 0.067 |
